Reference: article PMC9848300, “Discovery of novel enasidenib analogues targeting inhibition of mutant isocitrate dehydrogenase 2 as antileukaemic agents” (Journal of Enzyme Inhibition and Medicinal Chemistry, 2023)

Assays:
Format in all cases: cell-based
[1] = tested on: K-562; test: NCI 60 antitumor screening (single dose / five doses); details: Homo sapiens, K562; K-562 (leukaemia), single dose 10 μM; read-out: Growth inhibition percentage (GI %)
[2] = tested on: SR; test: as above; details: Homo sapiens; SR (leukaemia), single dose 10 μM; read-out: Growth inhibition percentage (GI %)
[3] = tested on: EKVX; test: as above; details: Homo sapiens; EKVX (non-small cell lung cancer), single dose 10 μM; read-out: Growth inhibition percentage (GI %)
[4] = tested on: HCC-2998; test: NCI 60 antitumor screening (single dose); details: Homo sapiens; HCC-2998 (colon cancer), single dose 10 μM; read-out: Growth inhibition percentage (GI %)
Summary of the method: (§1)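 Values are GI% (100 − G%) from the NCI 60-line single-dose screen, compound at 10 μM.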

[5] = tested on: HOP-62; test: NCI 60 antitumor screening (single dose); details: Homo sapiens; HOP-62 (non-small cell lung cancer), single dose 10 μM; read-out: Growth inhibition percentage (GI %)
Summary of the method: as §1

[6] = tested on: HS 578T; test: NCI 60 antitumor screening (single dose); details: Homo sapiens; HS 578T (breast cancer), single dose 10 μM; read-out: Growth inhibition percentage (GI %)
Summary of the method: (§2)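 NCI-60 protocol: single 10 μM dose against each cell line, run in triplicate. Percent growth (G%) of treated cells measured and growth inhibition reported as GI% = 100 − G%; panel mean also given.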

[7] = tested on: KM 12; test: NCI 60 antitumor screening (single dose); details: Homo sapiens, KM12; KM 12 (colon cancer), single dose 10 μM; read-out: Growth inhibition percentage (GI %)
Summary of the method: as §2

[8] = tested on: NCI-H226; test: NCI 60 antitumor screening (single dose); details: Homo sapiens; NCI-H226 (non-small cell lung cancer), single dose 10 μM; read-out: Growth inhibition percentage (GI %)
Summary of the method: as §2

[9] = tested on: NCI-H460; test: NCI 60 antitumor screening (single dose); details: Homo sapiens; NCI-H460 (non-small cell lung cancer), single dose 10 μM; read-out: Growth inhibition percentage (GI %)
Summary of the method: as §1

[10] = tested on: OVCAR-3; test: NCI 60 antitumor screening (single dose); details: Homo sapiens; OVCAR-3 (ovarian cancer), single dose 10 μM; read-out: Growth inhibition percentage (GI %)
Summary of the method: as §2

[11] = tested on: OVCAR-4; test: NCI 60 antitumor screening (single dose); details: Homo sapiens; OVCAR-4 (ovarian cancer), single dose 10 μM; read-out: Growth inhibition percentage (GI %)
Summary of the method: as §2

[12] = tested on: OVCAR-5; test: NCI 60 antitumor screening (single dose); details: Homo sapiens; OVCAR-5 (ovarian cancer), single dose 10 μM; read-out: Growth inhibition percentage (GI %)
Summary of the method: as §1

[13] = tested on: OVCAR-8; test: NCI 60 antitumor screening (single dose); details: Homo sapiens; OVCAR-8 (ovarian cancer), single dose 10 μM; read-out: Growth inhibition percentage (GI %)
Summary of the method: as §2

[14] = tested on: PC-3; test: NCI 60 antitumor screening (single dose); details: Homo sapiens; PC-3 (prostate cancer), single dose 10 μM; read-out: Growth inhibition percentage (GI %)
Summary of the method: as §2

[15] = tested on: SK-OV-3; test: NCI 60 antitumor screening (single dose); details: Homo sapiens; SK-OV-3 (ovarian cancer), single dose 10 μM; read-out: Growth inhibition percentage (GI %)
Summary of the method: as §1

[16] = tested on: SNB-19; test: NCI 60 antitumor screening (single dose); details: Homo sapiens; SNB-19 (CNS cancer), single dose 10 μM; read-out: Growth inhibition percentage (GI %)
Summary of the method: as §2

[17] = tested on: TK-10; test: NCI 60 antitumor screening (single dose); details: Homo sapiens; TK-10 (renal cancer), single dose 10 μM; read-out: Growth inhibition percentage (GI %)
Summary of the method: as §2

[18] = tested on: U251; test: NCI 60 antitumor screening (single dose); details: Homo sapiens, U-251; U251 (CNS cancer), single dose 10 μM; read-out: Growth inhibition percentage (GI %)
Summary of the method: as §1

[19] = tested on: COLO 205; test: NCI 60 antitumor screening (single dose / five doses); details: Homo sapiens; COLO 205 (colon cancer), single dose 10 μM; read-out: Growth inhibition percentage (GI %)
[20] = tested on: HCT-116; test: as above; details: Homo sapiens; HCT-116 (colon cancer), single dose 10 μM; read-out: Growth inhibition percentage (GI %)
[21] = tested on: SF-295; test: as above; details: Homo sapiens; SF-295 (CNS cancer), single dose 10 μM; read-out: Growth inhibition percentage (GI %)
[22] = tested on: LOX IMVI; test: as above; details: Homo sapiens; LOX IMVI (melanoma), single dose 10 μM; read-out: Growth inhibition percentage (GI %)
[23] = tested on: SK-MEL-2; test: as above; details: Homo sapiens; SK-MEL-2 (melanoma), single dose 10 μM; read-out: Growth inhibition percentage (GI %)
[24] = tested on: UACC-257; test: as above; details: Homo sapiens; UACC-257 (melanoma), single dose 10 μM; read-out: Growth inhibition percentage (GI %)
[25] = tested on: IGROV1; test: as above; details: Homo sapiens, IGROV-1; IGROV1 (ovarian cancer), single dose 10 μM; read-out: Growth inhibition percentage (GI %)
[26] = tested on: ACHN; test: as above; details: Homo sapiens; ACHN (renal cancer), single dose 10 μM; read-out: Growth inhibition percentage (GI %)
[27] = tested on: SN 12C; test: as above; details: Homo sapiens, SN12C; SN 12C (renal cancer), single dose 10 μM; read-out: Growth inhibition percentage (GI %)
[28] = tested on: T-47D; test: as above; details: Homo sapiens, T47D; T-47D (breast cancer), single dose 10 μM; read-out: Growth inhibition percentage (GI %)

SMILES | inhibition at 10 µM [1] | inhibition at 10 µM [2] | inhibition at 10 µM [3] | inhibition at 10 µM [4] | inhibition at 10 µM [5] | inhibition at 10 µM [6] | inhibition at 10 µM [7] | inhibition at 10 µM [8] | inhibition at 10 µM [9] | inhibition at 10 µM [10] | inhibition at 10 µM [11] | inhibition at 10 µM [12] | inhibition at 10 µM [13] | inhibition at 10 µM [14] | inhibition at 10 µM [15] | inhibition at 10 µM [16] | inhibition at 10 µM [17] | inhibition at 10 µM [18] | inhibition at 10 µM [19] | inhibition at 10 µM [20] | other results
C(=N\Nc1nc(N/N=C/c2ccc3c(c2)OCO3)nc(N2CCOCC2)n1)/c1ccc2c(c1)OCO2 [compound 6k, 2,4-Bis[(E)-2-(2H-1,3-Benzodioxol-5-ylmethylidene)hydrazin-1-yl]-6-(morpholin-4-yl)-1,3,5-triazine] | 45.6% | 85% | 4.47% | 8.26% | 13.6% | 16.7% | 17.4% | 22% | 12.2% | 6.73% | 8.16% | -1.78% | 26% | 30.1% | -11.8% | 5.57% | -3.24% | 24.1% | 40.7% | 37.1% | inhibition at 10 µM [21]: 9.09%; inhibition at 10 µM [22]: 30.1%; inhibition at 10 µM [23]: 1.68%; inhibition at 10 µM [24]: -2.23%; inhibition at 10 µM [25]: 24.3%; inhibition at 10 µM [26]: 24.7%; inhibition at 10 µM [27]: 24.1%; inhibition at 10 µM [28]: 23.8%
Fc1cccc(Cl)c1/C=N/Nc1nc(N/N=C/c2c(F)cccc2Cl)nc(N2CCOCC2)n1 [compound 6l, 2,4-Bis[(E)-2-[(2-Chloro-6-fluorophenyl)methylidene]hydrazin-1-yl]-6-(morpholin-4-yl)-1,3,5-triazine] | 43% | 27.8% | 45.5% | 5.25% | 6.23% | 5% | 18.9% | 20.4% | 23.1% | 22.9% | 32.8% | -12.4% | 15.5% | 19.3% | 7.59% | 12.9% | -16.5% | 11.8% | 29.6% | 16.4% | inhibition at 10 µM [21]: 49.5%; inhibition at 10 µM [22]: 5.3%; inhibition at 10 µM [23]: 17.1%; inhibition at 10 µM [24]: 17%; inhibition at 10 µM [25]: 41.4%; inhibition at 10 µM [26]: 7.67%; inhibition at 10 µM [27]: 15.3%; inhibition at 10 µM [28]: 29.5%
